Laboratory results as given in patent US12427134B2, “Methods of reducing the risk of cardiovascular events in a subject with atrial fibrillation and/or atrial flutter” (priority 2019, dated 2025).

Tested on: hypertriglyceridemic patients with cardiovascular disease or at high risk for cardiovascular disease
Assay: REDUCE-IT: subgroup analyses of the primary and key secondary endpoints
Assay type: in vivo, human
Details: for Primary endpoint, patients with event (%) / Time to primary endpoint, HR (95% CI) AMR101/Placebo / Primary endpoint, patients with event n/N: ITT
Experimental: Exploratory Subgroup Analyses: Analyses of the effects that patients off study drug and withdrawn from study have on the primary endpoint were performed. Subgroup analyses of the primary and key secondary endpoints were performed as described for the primary endpoint. For each subgroup, Kaplan-Meier estimates, the log-rank test stratified by stratification factors used at randomization (except where the subgroup was a stratification factor), and HRs and CIs from the Cox proportional hazards model as specified for the primary efficacy endpoint, were summarized by treatment group. Demographic, disease, treatment, and baseline lipid and lipoproteins parameters were explored.
Demographic parameters included: Gender; age at baseline (<65 years and ≥65 years); race (white and nonwhite, or any other subset with at least 10% of the total number of patients); geographical region (Westernized, Eastern European, and Asia Pacific countries); and baseline ezetimibe use (yes/no).
Disease parameters included: CV risk category; the presence/absence of diabetes at baseline; and renal dysfunction at baseline (estimated glomerular filtration rate [eGFR]<60 mL/min/1.73 m^2) using the Chronic Kidney Disease Epidemiology Collaboration (CKD-EPI) equation as follows: eGFR=141×min(Scr/κ,1)^α×max(Scr/κ,1)^[…]^Age×1.018 [if female]×1.159 [if black]
Treatment Parameters included: Statin intensity at baseline (statin type and regimen); and statin intensity categories as defined in ACC/AHA Cholesterol Guidelines (Stone 2013) and patient's 10-year CV Risk Score (Goff 2013).
Baseline Lipid and Lipoprotein Parameter included: LDL-C (by tertile); HDL-C (by tertile, and tertile by gender); TG (by tertile, and tertile by gender); RLP-C (by tertile); TG ≥150 mg/dL and TG <150 mg/dL; TG ≥200 mg/dL and TG <200 mg/dL; TG ≥median, TG <median; combined highest tertile for TG and lowest tertile for HDL-C; gender-specific highest tertile for TG and lowest tertile for HDL-C; TG ≥200 mg/dL with HDL-C ≤35 mg/dL; hsCRP (≤3 mg/L and >3 mg/L) and by gender; hsCRP (≤2 mg/L and >2 mg/L) and by gender; Apo B (by tertile); non-HDL-C (by tertile); baseline hemoglobin A1c (Hb1c) value (<6.5%, ≥6.5%); baseline PAD; and baseline TG levels ≥150 mg/dL with high-density lipoprotein cholesterol (HDL-C) levels ≤40 mg/dL for males and ≤50 mg/dL for females.
A Cox proportional hazard (PH) model as mentioned above but additionally with baseline TG as a covariate were fitted to the data at each interim. Diagnostic plots for the PH assumption were evaluated. The consistency of the treatment effects in subgroups was assessed for the primary and key secondary efficacy endpoints. For each subgroup variable, a Cox PH model with terms for treatment, stratification factors (with the exception of those subgroup variables related to the stratification factors, i.e., CV risk category), subgroup, and treatment-by-subgroup interaction were performed. The main treatment effect was tested with this model. P-values for testing the interaction terms <0.15 were considered significant. Results were presented in a Forest plot.
Subgroup analyses of the primary and key secondary endpoints were performed as described for the primary endpoint. For each subgroup, Kaplan-Meier estimates, the log-rank test stratified by stratification factors used at randomization (except where the subgroup was a stratification factor), and HRs and CIs from the Cox proportional hazards model as specified for the primary efficacy endpoint, were summarized by treatment group. All subgroup analyses were conducted for the ITT, mITT and PP populations.
Of note regarding the following subgroup analyses, per study design, subgroup analyses are underpowered to detect statistically significant results within each individual subgroup, particularly when a subgroup represents less than 50% of the enrolled population, and when a subgroup has low event rates. […]

[1] = Baseline TG <150 mg/dL or HDL-C >40 mg/dL (Males) or >50 mg/dL (Females)
[2] = Baseline TG ≥150 mg/dL and HDL-C ≤40 mg/dL (Males) or ≤50 mg/dL (Females)
[3] = Females, Baseline hsCRP >2 mg/L
[4] = Females, Baseline hsCRP ≤2 mg/L
[5] = Females, HDL-C Highest Tertile (>48 to ≤96.5 mg/dL)
[6] = Females, HDL-C Lowest Tertile (≥21 to ≤41 mg/dL)
[7] = Females, HDL-C Middle Tertile (>41 to ≤48 mg/dL)
[8] = Females, Highest tertile for baseline TG and lowest tertile for baseline HDL-C (No)
[9] = Females, Highest tertile for baseline TG and lowest tertile for baseline HDL-C (Yes)
[10] = Females, TG Highest Tertile (>241.5 to ≤1401 mg/dL)
[11] = Females, TG Lowest Tertile (≥92.5 to ≤186 mg/dL)
[12] = Females, TG Middle Tertile (>186 to ≤241.5 mg/dL)
[13] = Males, HDL-C Highest Tertile (>42 to ≤107.5 mg/dL)
[14] = Males, HDL-C Lowest Tertile (≥17 to ≤35.5 mg/dL)
[15] = Males, HDL-C Middle Tertile (>35.5 to ≤42 mg/dL)
[16] = Males, Highest tertile for baseline TG and lowest tertile for baseline HDL-C (No)
[17] = Males, Highest tertile for baseline TG and lowest tertile for baseline HDL-C (Yes)
[18] = Males, TG Highest Tertile (>253.5 to ≤830 mg/dL)
[19] = Males, TG Lowest Tertile (≥81.25 to ≤191.5 mg/dL)
[20] = Males, TG Middle Tertile (>191.5 to ≤253.5 mg/dL)
[21] = Overall (Males and Females), Baseline hsCRP >2 mg/L
[22] = Overall (Males and Females), Baseline hsCRP ≤2 mg/L
[23] = Overall (Males and Females), HDL-C Highest Tertile (>43.5 to ≤107.5 mg/dL)
[24] = Overall (Males and Females), HDL-C Lowest Tertile (≥17 to ≤36.5 mg/dL)
[25] = Overall (Males and Females), HDL-C Middle Tertile (>36.5 to ≤43.5 mg/dL)
[26] = Overall (Males and Females), Highest tertile for baseline TG and lowest tertile for baseline HDL-C (No)
[27] = Overall (Males and Females), Highest tertile for baseline TG and lowest tertile for baseline HDL-C (Yes)
[28] = Overall (Males and Females), TG Highest Tertile (>250 to ≤1401 mg/dL)

CC/C=C\C/C=C\C/C=C\C/C=C\C/C=C\CCCC(=O)OCC [AMR101, eicosapentaenoic acid ethyl ester]
Key secondary endpoint event, patients (<65 years subgroup): 9.0% | Key secondary endpoint, HR (<65 years subgroup): 0.652 | Primary endpoint event, patients (<65 years subgroup): 14.4% | Primary endpoint, HR (<65 years subgroup): 0.650 | Primary endpoint, patients with event (%) (Baseline HbA1c <6.5%): 16.5% | Time to primary endpoint, HR (95% CI) AMR101/Placebo (Baseline HbA1c <6.5%): 0.793 | Time to primary endpoint, HR (95% CI) AMR101/Placebo (Baseline HbA1c ≥6.5%): 0.701 | Primary endpoint, patients with event (%) [1]: 18.2% | Time to primary endpoint, HR (95% CI) AMR101/Placebo [1]: 0.842 | Primary endpoint, patients with event (%) [2]: 16.5% | Time to primary endpoint, HR (95% CI) AMR101/Placebo [2]: 0.691 | Primary endpoint, patients with event (%) [3]: (15.0) % | Primary endpoint, patients with event n/N [3]: 113/752 | Time to primary endpoint, HR (95% CI) AMR101/Placebo [3]: 0.930 | Primary endpoint, patients with event (%) [4]: (10.0) % | Primary endpoint, patients with event n/N [4]: 41/409 | Time to primary endpoint, HR (95% CI) AMR101/Placebo [4]: 0.621 | Primary endpoint, patients with event (%) [5]: (13.9) % | Primary endpoint, patients with event n/N [5]: 50/359 | Time to primary endpoint, HR (95% CI) AMR101/Placebo [5]: 0.936 | Primary endpoint, patients with event (%) [6]: (16.7) % | Primary endpoint, patients with event n/N [6]: 71/426 | Time to primary endpoint, HR (95% CI) AMR101/Placebo [6]: 0.894 | Primary endpoint, patients with event (%) [7]: (8.8) % | Primary endpoint, patients with event n/N [7]: 33/374 | Time to primary endpoint, HR (95% CI) AMR101/Placebo [7]: 0.609 | Primary endpoint, patients with event (%) [8]: (13.7) % | Primary endpoint, patients with event n/N [8]: 59/431 | Time to primary endpoint, HR (95% CI) AMR101/Placebo [8]: 0.755 | Primary endpoint, patients with event (%) [9]: (15.7) % | Primary endpoint, patients with event n/N [9]: 29/185 | Time to primary endpoint, HR (95% CI) AMR101/Placebo [9]: 0.934 | Primary endpoint, patients with event (%) [10]: (12.3) % | Primary endpoint, patients with event n/N [10]: 46/375 | Time to primary endpoint, HR (95% CI) AMR101/Placebo [10]: 0.734 | Primary endpoint, patients with event n/N [11]: 49/396 | Time to primary endpoint, HR (95% CI) AMR101/Placebo [11]: 0.728 | Primary endpoint, patients with event (%) [12]: (15.1) % | Primary endpoint, patients with event n/N [12]: 59/390 | Time to primary endpoint, HR (95% CI) AMR101/Placebo [12]: 1.077 | Primary endpoint, patients with event (%) (Males, Baseline hsCRP >2 mg/L): (21.5) % | Time to primary endpoint, HR (95% CI) AMR101/Placebo (Males, Baseline hsCRP >2 mg/L): 0.772 | Primary endpoint, patients with event (%) (Males, Baseline hsCRP ≤2 mg/L): (16.4) % | Time to primary endpoint, HR (95% CI) AMR101/Placebo (Males, Baseline hsCRP ≤2 mg/L): 0.691 | Primary endpoint, patients with event (%) [13]: (20.5) % | Primary endpoint, patients with event n/N [13]: 187/913 | Time to primary endpoint, HR (95% CI) AMR101/Placebo [13]: 0.857 | Primary endpoint, patients with event (%) [14]: (19.0) % | Time to primary endpoint, HR (95% CI) AMR101/Placebo [14]: 0.652 | Primary endpoint, patients with event (%) [15]: (16.9) % | Primary endpoint, patients with event n/N [15]: 160/945 | Time to primary endpoint, HR (95% CI) AMR101/Placebo [15]: 0.717 | Primary endpoint, patients with event (%) [16]: (18.1) % | Time to primary endpoint, HR (95% CI) AMR101/Placebo [16]: 0.693 | Primary endpoint, patients with event (%) [17]: (19.9) % | Primary endpoint, patients with event n/N [17]: 90/453 | Time to primary endpoint, HR (95% CI) AMR101/Placebo [17]: 0.632 | Primary endpoint, patients with event (%) [18]: (18.9) % | Primary endpoint, patients with event n/N [18]: 181/960 | Time to primary endpoint, HR (95% CI) AMR101/Placebo [18]: 0.671 | Primary endpoint, patients with event (%) [19]: (19.0) % | Primary endpoint, patients with event n/N [19]: 185/972 | Primary endpoint, patients with event (%) [20]: (18.6) % | Primary endpoint, patients with event n/N [20]: 185/993 | Time to primary endpoint, HR (95% CI) AMR101/Placebo [20]: 0.741 | Primary endpoint, patients with event (%) [21]: (19.2) % | Time to primary endpoint, HR (95% CI) AMR101/Placebo [21]: 0.813 | Primary endpoint, patients with event (%) [22]: (15.0) % | Time to primary endpoint, HR (95% CI) AMR101/Placebo [22]: 0.680 | Primary endpoint, patients with event (%) [23]: 15.9% | Time to primary endpoint, HR (95% CI) AMR101/Placebo [23]: 0.812 | Primary endpoint, patients with event (%) [24]: 18.1% | Time to primary endpoint, HR (95% CI) AMR101/Placebo [24]: 0.667 | Primary endpoint, patients with event (%) [25]: 17.6% | Time to primary endpoint, HR (95% CI) AMR101/Placebo [25]: 0.800 | Primary endpoint, patients with event (%) [26]: (16.3) % | Time to primary endpoint, HR (95% CI) AMR101/Placebo [26]: 0.679 | Primary endpoint, patients with event (%) [27]: (19.1) % | Primary endpoint, patients with event n/N [27]: 118/619 | Time to primary endpoint, HR (95% CI) AMR101/Placebo [27]: 0.670 | Primary endpoint, patients with event (%) [28]: 16.9% | Time to primary endpoint, HR (95% CI) AMR101/Placebo [28]: 0.675
